These results are taken from patent US12528801B2 (Givaudan SA, priority 2019, dated 2026).

pEC50: −log10 of the molar value. A value given as a limit tells only on which side of the number the result lay.

The experiment deals with T1, hTRPM8 (Homo sapiens, UniProt Q7Z2W7).
T1 construct: expressed in transfected cells
T1 sequence (Q7Z2W7 whole entry): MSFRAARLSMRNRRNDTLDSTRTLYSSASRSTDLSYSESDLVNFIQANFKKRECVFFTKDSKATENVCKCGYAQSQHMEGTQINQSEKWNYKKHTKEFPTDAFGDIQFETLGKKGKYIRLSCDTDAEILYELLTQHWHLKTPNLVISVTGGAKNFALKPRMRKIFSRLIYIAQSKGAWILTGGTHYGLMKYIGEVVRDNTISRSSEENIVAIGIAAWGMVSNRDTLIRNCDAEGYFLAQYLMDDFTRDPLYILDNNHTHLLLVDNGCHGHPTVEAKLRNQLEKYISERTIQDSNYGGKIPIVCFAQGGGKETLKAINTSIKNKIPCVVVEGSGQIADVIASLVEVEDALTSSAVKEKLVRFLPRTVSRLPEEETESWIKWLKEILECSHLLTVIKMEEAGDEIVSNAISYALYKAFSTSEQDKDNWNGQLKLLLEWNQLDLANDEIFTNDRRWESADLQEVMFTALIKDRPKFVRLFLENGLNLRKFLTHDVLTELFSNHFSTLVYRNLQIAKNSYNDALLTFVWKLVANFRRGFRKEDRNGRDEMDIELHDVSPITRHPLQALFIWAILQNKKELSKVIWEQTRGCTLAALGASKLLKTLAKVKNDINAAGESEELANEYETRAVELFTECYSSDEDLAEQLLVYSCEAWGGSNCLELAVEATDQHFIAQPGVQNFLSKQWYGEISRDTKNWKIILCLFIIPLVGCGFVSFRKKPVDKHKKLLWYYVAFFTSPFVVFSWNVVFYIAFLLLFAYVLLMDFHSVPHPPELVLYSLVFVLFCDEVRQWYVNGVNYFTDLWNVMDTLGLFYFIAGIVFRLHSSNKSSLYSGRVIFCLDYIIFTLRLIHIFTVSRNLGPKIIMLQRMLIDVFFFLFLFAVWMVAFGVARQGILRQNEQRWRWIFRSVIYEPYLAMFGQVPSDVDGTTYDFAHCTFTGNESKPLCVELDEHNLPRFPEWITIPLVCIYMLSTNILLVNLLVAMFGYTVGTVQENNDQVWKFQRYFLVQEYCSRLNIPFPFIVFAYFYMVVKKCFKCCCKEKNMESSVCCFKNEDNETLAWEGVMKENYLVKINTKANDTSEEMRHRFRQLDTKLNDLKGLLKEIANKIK
Put plainly: Assay on TRPM8 modulators: calcium imaging (Fluo-4, Flexstation) in HEK293 cell line stably expressing hTRPM8. As to conditions: HEK293 cells stably expressing hTRPM8; calcium influx, Fluo-4, Flexstation 3; sigmoidal dose-response fit. It counts as cell-based. The procedure, abridged:
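HEK293 cells stably expressing hTRPM8 were loaded with Fluo-4 AM plus probenecid and kept in HEPES buffer, pH 7.4. Calcium influx to serially diluted compounds was recorded for 120 s. Maximal activation was referenced to solvent control and 31.6 μM menthol, with EC values from sigmoidal dose-response fits.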
The term pEC50 denotes the EC50 on a negative log10 scale, so that one unit is a factor of ten. In the case of `CSC(C)C(=O)N1CCCCC1c1nnc(-c2ccc(F)cc2)[nH]1` (centres unmarked) [Compound 79, 1-(2-(5-(4-fluorophenyl)-4H-1,2,4-triazol-3-yl)piperidin-1-yl)-2-(methylthio)propan-1-one], the pEC50 was more than 7.30. `COc1ccc(-c2cnc(C3CCCCN3C(=O)C(C)SC)[nH]2)c(C)c1` (centres unmarked) [Compound 80, 1-(2-(5-(4-methoxy-2-methylphenyl)-1H-imidazol-2-yl)piperidin-1-yl)-2-(methylthio)propan-1-one]: the pEC50 was more than 7.30.

Turning to `COc1ccc(-c2cnc(C3CCCCN3C(=O)C(C)SC)[nH]2)cc1` (centres unmarked) [Compound 81, 1-(2-(5-(4-methoxyphenyl)-1H-imidazol-2-yl)piperidin-1-yl)-2-(methylthio)propan-1-one], the negative-log EC50 (pEC50) is more than 7.30.

For `CSc1cc(C)c(-c2cnc(C3CCCCN3C(=O)C(C)SC)[nH]2)cn1` (centres unmarked) [Compound 82, 1-(2-(5-(4-methyl-6-(methylthio)pyridin-3-yl)-1H-imidazol-2-yl)piperidin-1-yl)-2-(methylthio)propan-1-one], the negative logarithm of the EC50 (pEC50) was 6.00 to 6.52. Turning to `COCc1cc(-c2cnc(C3CCCCN3C(=O)C(C)SC)[nH]2)cs1` (centres unmarked) [Compound 83, 1-(2-(5-(5-(methoxymethyl)thiophen-3-yl)-1H-imidazol-2-yl)piperidin-1-yl)-2-(methylthio)propan-1-one], the negative logarithm of the EC50 (pEC50) was 6.52 to 7.30. `COc1ccc(-c2cnc(C3CCCCN3C(=O)C(C)SC)[nH]2)cn1` (centres unmarked) [Compound 84, 1-(2-(5-(6-methoxypyridin-3-yl)-1H-imidazol-2-yl)piperidin-1-yl)-2-(methylthio)propan-1-one]: the negative-log EC50 (pEC50) is 6.52 to 7.30. For the molecule `CSC(C)C(=O)N1CCCCC1c1ncc(-c2ccc3c(c2)OCO3)[nH]1` (centres unmarked) [Compound 85, 1-(2-(5-(benzo[d][1,3]dioxol-5-yl)-1H-imidazol-2-yl)piperidin-1-yl)-2-(methylthio)propan-1-one], the pEC50 is more than 7.30. Regarding `CCC(=O)N1CCCCC1c1ncc(-c2ccc(C)cc2)[nH]1` (centres unmarked) [Compound 86, 1-(2-(5-(p-tolyl)-1H-imidazol-2-yl)piperidin-1-yl)propan-1-one], the negative-log EC50 (pEC50) is 6.52 to 7.30.

With `CSC(C)C(=O)N1CCCCC1c1ncc(Cc2ccccc2)[nH]1` (centres unmarked) [Compound 87, 1-(2-(5-benzyl-1H-imidazol-2-yl)piperidin-1-yl)-2-(methylthio)propan-1-one], the negative logarithm of the EC50 (pEC50) is 4.46 to 6.00. The same measure for `CSC(C)C(=O)N1CCCCC1c1ncc(Br)[nH]1` (centres unmarked) [Compound 88, 1-(2-(5-bromo-1H-imidazol-2-yl)piperidin-1-yl)-2-(methylthio)propan-1-one]: 6.00 to 6.52; for `CSC(C)C(=O)N1CCCCC1c1ncc(-c2ccccc2C#N)[nH]1` (centres unmarked) [Compound 89, 2-(2-(1-(2-(methylthio)propanoyl)piperidin-2-yl)-1H-imidazol-5-yl)benzonitrile]: 6.00 to 6.52; for `Cc1ccc(C(C)C(=O)N2CCCCC2c2nc(-c3ccccc3)c[nH]2)o1` (centres unmarked) [Compound 91, 2-(5-methylfuran-2-yl)-1-(2-(4-phenyl-1H-imidazol-2-yl)piperidin-1-yl)propan-1-one]: 6.52 to 7.30. On to `C=CCSC(C)C(=O)N1CCCCC1c1ncc(-c2ccc(C)cc2)[nH]1` (centres unmarked) [Compound 92, 2-(allylthio)-1-(2-(5-(p-tolyl)-1H-imidazol-2-yl)piperidin-1-yl)propan-1-one], for which the negative-log EC50 (pEC50) is more than 7.30. With `CCC(C(=O)N1CCCCC1c1nc(-c2ccccc2)c[nH]1)N(C)C` (centres unmarked) [Compound 93, 2-(dimethylamino)-1-(2-(4-phenyl-1H-imidazol-2-yl)piperidin-1-yl)butan-1-one], the pEC50 was 4.46 to 6.00. Regarding `C[C@H](C(=O)N1CCCCC1c1nc(-c2ccccc2)c[nH]1)N(C)C` (stereo partly drawn) [Compound 94, (2R)-2-(dimethylamino)-1-(2-(4-phenyl-1H-imidazol-2-yl)piperidin-1-yl)propan-1-one], the pEC50 was 6.00 to 6.52. For `O=C(Cc1ccco1)N1CCCCC1c1nc(-c2ccccc2)c[nH]1` (centres unmarked) [Compound 96, 2-(furan-2-yl)-1-(2-(4-phenyl-1H-imidazol-2-yl)piperidin-1-yl)ethan-1-one], the pEC50 is 4.46 to 6.00. With `CC(C(=O)N1CCCCC1c1nc(-c2ccccc2)c[nH]1)c1ccco1` (centres unmarked) [Compound 97, 2-(furan-2-yl)-1-(2-(4-phenyl-1H-imidazol-2-yl)piperidin-1-yl)propan-1-one], the negative logarithm of the EC50 (pEC50) was 6.52 to 7.30. For the molecule `O=C(Cc1ccoc1)N1CCCCC1c1nc(-c2ccccc2)c[nH]1` (centres unmarked) [Compound 98], the pEC50 was 6.52 to 7.30. As for `Cc1ccc(-c2cnc(C3CCCCN3C(=O)C(C)c3ccoc3)[nH]2)cc1` (centres unmarked) [Compound 99, 2-(furan-3-yl)-1-(2-(5-(p-tolyl)-1H-imidazol-2-yl)piperidin-1-yl)propan-1-one], the negative logarithm of the EC50 (pEC50) was more than 7.30. Take `CNCC(=O)Nc1ccc(-c2cnc(C3CCCCN3C(=O)C(C)SC)[nH]2)cc1` (centres unmarked) [Compound 100, 2-(methylamino)-N-(4-(2-(1-(2-(methylthio)propanoyl)piperidin-2-yl)-1H-imidazol-5-yl)phenyl)acetamide]: the pEC50 was 6.52 to 7.30. The same measure for `Cc1ccc(-c2cnc(C3CCCCN3C(=O)C(C)[S+](C)[O-])[nH]2)cc1` (centres unmarked) [Compound 101, 2-(methylsulfinyl)-1-(2-(5-(p-tolyl)-1H-imidazol-2-yl)piperidin-1-yl)propan-1-one]: 6.52 to 7.30; for `CS(=O)(=O)CC(=O)N1CCCCC1c1nc(-c2ccccc2)c[nH]1` (centres unmarked) [Compound 102, 2-(methylsulfonyl)-1-(2-(4-phenyl-1H-imidazol-2-yl)piperidin-1-yl)ethan-1-one]: 4.46 to 6.00; for `CC(C(=O)N1CCCCC1c1nc(-c2ccccc2)c[nH]1)S(C)(=O)=O` (centres unmarked) [Compound 103, 2-(methylsulfonyl)-1-(2-(4-phenyl-1H-imidazol-2-yl)piperidin-1-yl)propan-1-one]: 4.46 to 6.00. For the molecule `CSC(C)C(=O)N1CCCCC1c1nnn(-c2ccc(C)cc2)n1` (centres unmarked) [Compound 104, 2-(methylthio)-1-(2-(2-(p-toly)-2H-tetrazol-5-yl)piperidin-1-yl)propan-1-one], the negative logarithm of the EC50 (pEC50) is more than 7.30. Consider `CSC(C)C(=O)N1CCCCC1c1nc(-c2ccccc2)no1` (centres unmarked) [Compound 105, 2-(methylthio)-1-(2-(3-phenyl-1,2,4-oxadiazol-5-yl)piperidin-1-yl)propan-1-one], for which the pEC50 is 6.00 to 6.52.

As for `CSC(C)C(=O)N1CCCCC1c1nc(-c2cnn(C(F)(F)F)c2)c[nH]1` (centres unmarked) [Compound 106, 2-(methylthio)-1-(2-(4-(1-(trifluoromethyl)-1H-pyrazol-4-yl)-1H-imidazol-2-yl)piperidin-1-yl)propan-1-one], the negative logarithm of the EC50 (pEC50) was 6.52 to 7.30. Consider `CSC(C)C(=O)N1CCCCC1c1nc(-c2ccc(CN3CCOCC3)cc2)c[nH]1` (centres unmarked) [Compound 107, 2-(methylthio)-1-(2-(4-(4-(morpholinomethyl)phenyl)-1H-imidazol-2-yl)piperidin-1-yl)propan-1-one], for which the pEC50 is 4.46 to 6.00. For `CSC(C)C(=O)N1CCCCC1c1nc(-c2ccc(C(F)(F)F)o2)c[nH]1` (centres unmarked) [Compound 108, 2-(methylthio)-1-(2-(4-(5-(trifluoromethyl)furan-2-yl)-1H-imidazol-2-yl)piperidin-1-yl)propan-1-one], the pEC50 was more than 7.30.

In the case of `CSC(C)C(=O)N1CCCCC1c1nc(-c2ccc(C(F)(F)F)s2)c[nH]1` (centres unmarked) [Compound 109, 2-(methylthio)-1-(2-(4-(5-(trifluoromethyl)thiophen-2-yl)-1H-imidazol-2-yl)piperidin-1-yl)propan-1-one], the pEC50 was more than 7.30.
